Laboratory results taken from ChEMBL document CHEMBL1201862, “PubChem BioAssay data set” (2004).
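Results reflect a 48-hour exposure of cells in 96-well plates to compound at five concentrations. The concentration for 50% growth inhibition is given as GI50.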 Activity calls are given as the source filed them. Cut-off read from the data, not from the text of the source: active = GI50 up to about 1.1 µM and inactive = higher.

Experiments:
Assay in all cases: DTP human tumour cell line panel, 48 h
A498 = system: A498
ACHN = system: ACHN
786-0 = system: 786-0
OVCAR-4 = system: OVCAR-4
COLO 205 = system: COLO 205
SNB-75 = system: SNB-75
HCC 2998 = system: HCC 2998
OVCAR-3 = system: OVCAR-3
IGROV-1 = system: IGROV-1
SNB-19 = system: SNB-19
CAKI-1 = system: CAKI-1
A549 = system: A549
NCI-H226 = system: NCI-H226
RPMI-8226 = system: RPMI-8226
SK-MEL-2 = system: SK-MEL-2
RXF 393 = system: RXF 393
MOLT-4 = system: MOLT-4
NCI/ADR-RES = system: NCI/ADR-RES
PC-3 = system: PC-3
MCF7 = system: MCF7

Measured: GI50

O=c1cc(CO)oc2c3c(cc(O)c12)OCC(COC1OC(CO)C(O)C(O)C1O)=CC3 (stereo not given)
inactive: A498 > 100 µM | ACHN > 100 µM | 786-0 > 100 µM | OVCAR-4 > 100 µM | COLO 205 > 100 µM | SNB-75 > 100 µM | HCC 2998 > 100 µM | OVCAR-3 > 100 µM | IGROV-1 > 100 µM | SNB-19 > 100 µM | CAKI-1 > 100 µM | A549 > 100 µM | NCI-H226 > 100 µM | RPMI-8226 > 100 µM | SK-MEL-2 > 100 µM | RXF 393 > 100 µM | MOLT-4 > 100 µM

Cc1cc(C)nc(NS(=O)(=O)c2ccc(NC(=O)NC(F)(F)F)cc2)n1
inactive: A498 > 100 µM | ACHN > 100 µM | 786-0 > 100 µM | COLO 205 > 100 µM | SNB-75 > 100 µM | NCI/ADR-RES > 100 µM | HCC 2998 > 100 µM | PC-3 > 100 µM | IGROV-1 > 100 µM | SNB-19 > 100 µM | CAKI-1 1.95 µM | A549 > 100 µM | RPMI-8226 > 100 µM | SK-MEL-2 > 100 µM | RXF 393 > 100 µM | MOLT-4 > 100 µM

O=C1NCC2(CCN(CCCC3(c4ccc(F)cc4)OCCO3)CC2)N1c1ccccc1
inactive: A498 86.3 µM | ACHN > 100 µM | 786-0 > 100 µM | OVCAR-4 > 100 µM | COLO 205 > 100 µM | SNB-75 66.5 µM | NCI/ADR-RES > 100 µM | HCC 2998 > 100 µM | OVCAR-3 > 100 µM | PC-3 > 100 µM | IGROV-1 > 100 µM | SNB-19 > 100 µM | CAKI-1 50.1 µM | A549 > 100 µM | NCI-H226 > 100 µM | RPMI-8226 > 100 µM | SK-MEL-2 > 100 µM | RXF 393 > 100 µM | MOLT-4 > 100 µM

CC1=C(C(=O)Nc2ccccc2)C(c2ccc(C(C)C)cc2)C(C(=O)Nc2ccccc2)=C(C)N1
inactive: A498 24 µM | ACHN 17.3 µM | 786-0 15 µM | OVCAR-4 28.5 µM | COLO 205 12.9 µM | SNB-75 18.7 µM | HCC 2998 7.19 µM | OVCAR-3 18.2 µM | IGROV-1 23.2 µM | SNB-19 29.4 µM | CAKI-1 21.9 µM | A549 16.5 µM | NCI-H226 21.3 µM | RPMI-8226 6.71 µM | SK-MEL-2 13.8 µM | RXF 393 11.8 µM | MOLT-4 4.86 µM

Clc1ccc(C(n2cc(Br)cn2)n2cc(Br)cn2)cc1
inactive: A498 18.3 µM | ACHN 14.5 µM | 786-0 14.1 µM | OVCAR-4 12 µM | COLO 205 16.1 µM | SNB-75 > 10 µM | HCC 2998 16.4 µM | OVCAR-3 14.1 µM | IGROV-1 18.7 µM | SNB-19 > 10 µM | CAKI-1 11.1 µM | A549 14.7 µM | NCI-H226 8.91 µM | RPMI-8226 19.9 µM | SK-MEL-2 16.8 µM | RXF 393 14.5 µM | MOLT-4 16.5 µM

C=C1C(=O)OC2/C=C(\C)C(OC(C)=O)C3OC3C(C)(O)CC(OC(=O)/C(C)=C/C)C12 (stereo not given)
inactive: A498 15.8 µM | ACHN 13.5 µM | 786-0 4.73 µM | OVCAR-4 33.8 µM | COLO 205 3.86 µM | SNB-75 21.9 µM | HCC 2998 8.38 µM | OVCAR-3 3.9 µM | IGROV-1 16.9 µM | SNB-19 18.7 µM | CAKI-1 2.38 µM | A549 18.7 µM | NCI-H226 10 µM | RPMI-8226 4.91 µM | SK-MEL-2 6.59 µM | RXF 393 3.85 µM | MOLT-4 5.05 µM

Cc1cc(Cl)ccc1NC(=O)C1C(=O)N(c2ccc(Cl)cc2C)C(=O)/C1=N\N (stereo not given)
inactive: A498 28.3 µM | ACHN 34.1 µM | 786-0 81.3 µM | OVCAR-4 83.2 µM | COLO 205 56.4 µM | SNB-75 42.6 µM | HCC 2998 24.9 µM | OVCAR-3 30.8 µM | IGROV-1 55.1 µM | SNB-19 38.9 µM | CAKI-1 35.6 µM | A549 34.4 µM | NCI-H226 27 µM | RPMI-8226 25.4 µM | SK-MEL-2 27 µM | RXF 393 > 100 µM | MOLT-4 27.9 µM

CN1C(=O)C2CCCC(=O)N2c2cccnc21 (stereo not given)
inactive: ACHN > 100 µM | 786-0 > 100 µM | OVCAR-4 > 100 µM | COLO 205 > 100 µM | NCI/ADR-RES > 100 µM | MCF7 > 100 µM | HCC 2998 > 100 µM | OVCAR-3 > 100 µM | IGROV-1 > 100 µM | SNB-19 > 100 µM | CAKI-1 > 100 µM | A549 > 100 µM | NCI-H226 > 100 µM | RPMI-8226 > 100 µM | SK-MEL-2 32.4 µM | MOLT-4 > 100 µM

CCO/C=C1\N=C(c2ccc(Cl)c(Cl)c2)OC1=O
inactive: A498 27 µM | ACHN > 100 µM | 786-0 > 100 µM | OVCAR-4 > 100 µM | COLO 205 > 100 µM | SNB-75 52.1 µM | HCC 2998 > 100 µM | OVCAR-3 > 100 µM | IGROV-1 > 100 µM | SNB-19 > 100 µM | CAKI-1 > 100 µM | A549 > 100 µM | NCI-H226 30.5 µM | RPMI-8226 > 100 µM | SK-MEL-2 > 100 µM | RXF 393 79.8 µM | MOLT-4 > 100 µM

Cc1ccc(C(=O)/C=C(\O)C(=O)NC23CC4CC(CC(C4)C2)C3)cc1
inactive: 786-0 > 10 µM | OVCAR-4 > 10 µM | COLO 205 > 10 µM | SNB-75 > 10 µM | MCF7 7.41 µM | HCC 2998 > 10 µM | PC-3 9.79 µM | CAKI-1 > 10 µM | A549 > 10 µM | RPMI-8226 8.61 µM | RXF 393 > 10 µM | MOLT-4 3.86 µM

O=C(O)CCC(NC(=O)c1ccc(CNc2nc3cc(C(F)(F)F)ccc3nc2C(=O)O)cc1)C(=O)O (stereo not given)
inactive: A498 > 100 µM | ACHN > 100 µM | 786-0 > 100 µM | OVCAR-4 > 100 µM | COLO 205 > 100 µM | SNB-75 > 100 µM | NCI/ADR-RES > 100 µM | HCC 2998 > 100 µM | OVCAR-3 > 100 µM | PC-3 > 100 µM | IGROV-1 > 100 µM | SNB-19 > 100 µM | CAKI-1 > 100 µM | A549 > 100 µM | NCI-H226 > 100 µM | SK-MEL-2 > 100 µM | RXF 393 > 100 µM | MOLT-4 > 100 µM

BrC(c1cccc2ccccc12)c1cccc2ccccc12
inactive: A498 17.6 µM | ACHN 21.9 µM | 786-0 13.7 µM | OVCAR-4 17 µM | SNB-75 13.5 µM | NCI/ADR-RES 16.5 µM | OVCAR-3 11.9 µM | PC-3 22.1 µM | IGROV-1 13.8 µM | SNB-19 43.4 µM | CAKI-1 22.2 µM | A549 26.4 µM | NCI-H226 17.2 µM | RPMI-8226 > 100 µM | SK-MEL-2 14.9 µM | RXF 393 13.6 µM | MOLT-4 > 100 µM
